According to patent publication US20140256663A1, “Amphotericin Analogous Compounds and Pharmaceutical Compositions Containing Them” (CENTRO DE INVESTIGACION Y DE ESTUDIOS AVANZADOS DEL …, priority 2010, published 2014):
pIC50: −log10 of the molar value. In brackets after ≈: the same amount, converted by molar mass. Like-named read-outs stand apart in the source and are kept apart here.

How the values were obtained:
[1] = Unit channel studies in chicken egg lecithin bilayers with cholesterol
Method: The activity is determined by the presence of the different channels formed by polyenes in the lipid bilayer (Cotero, et al., supra; Venegas, et al., supra). […] These values were determined by the technique of unit channel delineated above.
Unit channel studies were performed according to procedures described earlier (Cotero, et al., supra, Venegas, et al., supra). Required liposomal suspensions were prepared using lecithin with cholesterol or ergosterol. These suspensions were placed in an ultrasonic bath for 15 minutes to produce unilamellar vesicles. Subsequently, the suspension was placed in a 100 μl eppendorf and a lipid bilayer was formed on the tip of a micro-electrode. The unit channels of amphotericin and of the invented compounds were incorporated to this bilayer. The unit channel current of the various compounds was recorded with an electrometer, and then these records were analyzed by determining the activity of the compounds and the characteristics of the channels formed.
The activity is determined by the presence of the various channels formed by polyenes in the lipid bilayer (Cotero, et al., supra, Venegas, et al., supra). […] This conductance is the effect of all the channels present and was determined by the unit channel technique earlier described.

[2] = system: Candida albicans ATCC 752; assay: Antifungal activity in vitro by flow cytometry, Candida albicans ATCC 752; assay type: cell-based; conditions: read-out: CF50 Candida albicans ATCC 752
Method: (§1) The antifungal activity of the polyene macrolide derivate of the present invention was determined by flow cytometry method earlier described (Pinto et al., J. Medical Microbiology, 2009; 58, 1454-1462; Pina-Vaz and Rodriguez, Methods Mol. Biol. 2010; 638:281-289). For the test two strains of Candida albicans (ATCC 10231 and 752) and Candida kruzei were used. A cellular suspension of 1×10^6 UFC/mL was used, which has sown in 96-well plates. […] As controls were used: untreated yeasts (control of living cells), yeasts exposed to UV radiation (arrest, inhibition of proliferation), and yeasts exposed at temperature of 100° C. (dead yeasts). Cells were collected by centrifugation at 10,000×g for 10 min, they were washed once in phosphate buffer. […] of propidium iodide 0.1 mg/mL were added to the cell suspension. It was incubated during 30 minutes at room temperature and protected from light. Finally, the samples were analyzed by flow cytometry (Becton-Dickinson Facsc Calibur, laser argon 480 nm). The intrinsic parameters and fluorescence in the FL2 channel (yellow/orange fluorescence) for FUN and channel FL3 (red fluorescence, filter 630 nm) for propidium iodide were acquired and registered on a logarithmic scale for a minimum of 7500 events per sample. For data analysis, the quadrants were adjusted in a plot of data lines of fluorescence intensity of samples. […] These quadrants were used to quantify the percentile of cells showing altered fluorescence compared to drug-free controls.

[3] = system: Candida kruzei; assay: Antifungal activity in vitro by flow cytometry, Candida kruzei; assay type: cell-based; conditions: read-out: CF50 Candida kruzei
Method: as §1

[4] = system: human erythrocytes; assay: Hemolytic assay on human erythrocytes; assay type: cell-based; conditions: 1 hour
Method: The hemotoxicity of the polyene macrolide derivative of the present invention was determined by measuring the toxicity to human erythrocytes (values HE50) using a method established by Cybulska, et al. (Cybulska, B., Borowski, E. and Gary-Bobo, M. Relationship between ionophoric and hemolytic activities of perimycin A and vacidin A, two polyene macrolide antifungal antibiotics. Biochem Pharmacol. 1989; 38(11): 1755-1762). For determining the haematoxicity 2 mL blood were obtained and placed in a tube with EDTA. The number of erythrocytes was counted in a Neubauer chamber, and 1×10^7 cells/mL were placed in test tubes. The erythrocytes were resuspended in 450 μL of KCl 150 mM+Tris 3 mM buffer. The erythrocytes were treated with concentrations of 0.01, 0.1, 1, 10 y 100 μM and incubated in a water bath for 1 hour. They were then centrifuged at 1500 rpm for 15 seconds; 150 μL were taken from the supernatant and placed in 96-well plates; the optical density of each group was measured using a plate reader at a wavelength of 550 nm. We included one tube with the drug solvent (DMSO 1%) as internal control. We also included one tube only with erythrocytes and 500 μl of buffer KCl 150 mM+Tris 3 mM, which we consider as a negative control group and a tube with 500 μl of red cells and 35 mM NaCl (positive control).

[5] = system: Candida albicans ATCC 10231; assay: Antifungal activity in vitro by flow cytometry, Candida albicans ATCC 10231; assay type: cell-based
[6] = 200 μM compound, 30 mol % cholesterol, 27° C.

| SMILES | Opening probability, channel type I [1, 6] [%] | Opening probability, channel type II [1, 6] [%] | Opening probability, channel type III [1, 6] [%] | Opening probability, channel type IV [1, 6] [%] | Opening probability, channel type V [1, 6] [%] | Opening probability, channel type VI [1, 6] | activity of transmembranal channels in the cholesterol membrane ([1]; in words, compared to AmB) | pIC50 ([2]; ATCC752, 24 h) | pIC50 ([3]; 24 h) | HE50 (Hemolysis 50) [4] [µM] | pIC50 ([5]; ATCC10231, 24 h, read-out: CF50 Candida albicans ATCC 10231) | Average conductance cholesterol ([1]; AmB 6 μM, 30° C.) [fS] | pIC50 ([2]; ATCC752, 24 h at 37° C.) | pIC50 ([3]; 24 h at 37° C.) | MIC50 ([5]; ATCC10231, Compounds of the present invention) [µg/mL] |
| --- | --- | --- | --- | --- | --- | --- | --- | --- | --- | --- | --- | --- | --- | --- | --- |
| COC(=O)[C@@H](Cc1c[nH]c2ccccc12)NC(=O)[C@@H]1C(O)C[C@@]2(O)C[C@@H](O)C[C@@H](O)[C@H](O)CC[C@@H](O)C[C@@H](O)CC(=O)OC(C)C(C)[C@H](O)C(C)/C=C/C=C/C=C/C=C/C=C/C=C/C=C/[C@H](OC3OC(C)C(O)C(N)C3O)CC1O2 (stereo partly shown) [A-7, N-(D)-tryptophanamide of AmB] | 14 | 7 | <1 | <1 | <1 | N.O. | more reduced activity of transmembranal channels | 5.09 | < 5.00 | 80 | 5.82 |  |  |  |  |
| C[C@@H]1[C@H](O)[C@@H](C)/C=C/C=C/C=C/C=C/C=C/C=C/C=C/[C@H](O[C@@H]2O[C@H](C)[C@@H](O)[C@H](N)[C@@H]2O)C[C@@H]2O[C@](O)(C[C@@H](O)C[C@@H](O)[C@H](O)CC[C@@H](O)C[C@@H](O)CC(=O)O[C@H]1C)C[C@H](O)[C@H]2C(=O)O [AmB, Amphotericin B] |  |  |  |  |  |  |  |  |  | 7 |  | 26.6 ± 9.9 | 6.00 | < 5.00 | 0.2 (≈ 0.216 µM) |
